Measured values: patent US20060183800A1, “Methods and fluorinated compositions for treating amyloid-related diseases” (priority 2004, published 2006)

Target: solubilized Aβ40 (Homo sapiens, UniProt P05067)
Experiment: MS (mass spectrometry) binding assay for Aβ40
Description: The test compounds were synthesized and screened by mass spectrometry (“MS”) assays. The MS assay gives data on the ability of compounds to bind to proteins, in this example, to β-amyloid.
In the MS assay for Aβ40, the sample was prepared as an aqueous solution (adding 20% ethanol if necessary to solubilize in water), 200 μM of a test compound and 20 μM of solubilized Aβ40, or 400 μM of a test compound and 40 μM of solubilized Aβ40. The pH value of the sample was adjusted to 7.4 (±0.2) by addition of 0.1% aqueous sodium hydroxide. The solution was then analyzed by electrospray ionization mass spectrometry using a Waters ZQ 4000 mass spectrometer. The sample was introduced by direct infusion at a flow-rate of 25 μL/min within 2 hr. after sample preparation. The source temperature was kept at 70° C. and the cone voltage was 20 V for all the analysis. Data were processed using Masslynx 3.5 software. The MS assay gives data on the ability of compounds to bind to soluble Aβ.

Sequence of solubilized Aβ40 (P05067 672-711 limits assumed): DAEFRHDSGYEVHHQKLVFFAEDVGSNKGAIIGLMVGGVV

binding to soluble Aβ40 (200 μM of test compound): 20-44%
binding to soluble Aβ40 (400 μM of test compound): 45-59%
Compound: O=S(=O)(O)CCCNCC(F)(F)F [3-[(2,2,2-trifluoroethyl)amino]-1-propanesulfonic acid]
